target: peripheral (ω3) benzodiazepine (BZ) receptor (Rattus norvegicus, UniProt P16257); assay: BZω3 (peripheral-type) benzodiazepine receptor binding assay
Experimental: Experiment 1: Central (ω1, ω2) and peripheral (ω3) benzodiazepine (BZ) receptor binding assays
BZω1 and BZω2 receptor binding assays were carried out according to the method of Stephens, D. N. et al. [cf.
Receptor membrane fractions for ω1, ω2 and ω3 were prepared from the cerebellum (ω1), spinal cord (ω1) or kidney (ω3) in 7-8 week old male rats of Wistar strain by the procedure described below.
After the cerebellum or spinal cord was homogenized with 20 volumes of ice-cold 50 mM Tris-citrate buffer (pH 7.1), the homogenate was centrifuged for 15 minutes at 40,000 g. The pellet obtained was washed 4 times by the same procedure, frozen and stored for 24 hours at -60° C. The resulting pellet, after being thawed, washed with the buffer and centrifuged, was suspended in the buffer I for the binding assay (50 mM Tris-HCl buffer containing 120 mM NaCl, 5 mM KCl, 2 mM CaCl2 and 1 mM MgCl2 ; pH 7.4) and the suspension thus obtained (containing 1 g wet tissue/40 ml) was used for the BZω1 and BZω2 receptor binding assays. On the other hand, the kidney was homogenized with 20 volumes of the ice-cold buffer II for the binding assay (50 mM Na--K phosphate buffer containing 100 mM NaCl; pH 7.4), filtered through 4 sheets of gauze, and centrifuged for 20 minutes at 40,000 g. The pellet obtained was suspended in the buffer II and the suspension (containing 1 g wet tissue/100 ml) was used for the binding assay as BZω3 receptor membrane source.
Flumazenil (final concentration: 0.3 nM for (ω1 and 1 nM for ω2) and flunitrazepam (final concentration: 10 μM) were used for the BZω1 or BZω2 receptor binding assays as the isotope-labeled and unlabeled ligands, respectively. For the BZω3 receptor binding assay, [^3 H] 4'-chlorodiazepam (7-chloro-1,3-dihydro-1-methyl-5-(4-chlorophenyl)-2H-1,4-benzodiazepin-2-one) (final concentration: 0.5 nM) and diazepam (final concentration: 100 μM) were used as the isotope-labeled and unlabeled ligands, respectively. Incubation was performed for 30 minutes at 37° C. in the BZω1 or BZω2 receptor binding assays, and for 150 minutes at 0° C. in the BZω3 receptor binding assay. The BZω1 or BZω2 receptor binding assays were carried out in the presence of bicuculline (final concentration: 100 μM).
The binding assay was performed by the following procedure. After adding each test compound at certain known concentrations, a [^3 H] ligand and the buffer I or II to each test tube, each assay was started by addition of membrane preparation (total volume of 1 ml). After incubation, the assay was terminated by filtration with suction through a Whatman GF/B glass fiber filter using a cell harvester (Brandel, USA). The filters were rapidly washed 3 times with 5 ml of ice-cold 50 mM Tris-HCl buffer (pH 7.7) for ω1 and ω2, or the buffer II forω3, and transferred to scintillation vials containing 10 ml liquid scintillation cocktail (ACS-II, Amersham, USA). After a few hours, retained radioactivity was counted by a liquid scintillation spectrometer. Specific binding of [^3 H] ligands was calculated as the difference between amounts of radioactivity bound in the presence and absence of excess unlabeled ligands.

| Structure (SMILES) | IC50 [nM] |
| --- | --- |
| CCCCN(CCCC)C(=O)CNc1nc(-c2ccc(Cl)cc2)nc(C)c1C [Example 15] | 3.86 |
| Cc1nc(-c2ccc(C(F)(F)F)cc2)nc(NCC(=O)N(C)c2ccccc2)c1C [Example 27] | 0.11 |
| COc1ccc(N(C)C(=O)CNc2nc(-c3ccccc3)nc(C)c2C)cc1 [Example 41] | 2.53 |
| CCN(C(=O)CNc1nc(-c2ccccc2)nc(C)c1C)c1ccc(Cl)cc1 [Example 51] | 0.32 |
| CCCCN(C(=O)CNc1nc(-c2ccccc2)nc(C)c1C)c1ccccc1 [Example 57] | 5.39 |
| Cc1nc(-c2ccc(Cl)cc2)nc(NCC(=O)N2CC(C)OC(C)C2)c1C (stereo not drawn) [Example 68, 4-[2-(4-Chlorophenyl)-5,6-dimethyl-4-pyrimidinylamino]acetyl-2,6-dimethylmorpholine] | 2.19 |
| CCCN(CCC)C(=O)C(CO)Nc1nc(-c2ccccc2)nc(C)c1C (stereo not drawn) [Example 69, 3-hydroxy-2-(5,6-dimethyl-2-phenyl-4-pyrimidinylamino)-N,N-dipropylpropanamide] | 2.75 |
| Cc1nc(-c2ccccc2)nc(N(C)CC(=O)N(C)c2ccc(Cl)cc2)c1C [Example 76] | 1.33 |
| CCCN(CCC)C(=O)C1Cc2ccccc2N1c1nc(-c2ccccc2)nc(C)c1C (stereo not drawn) [Example 81, 2,3-dihydro-1-(5,6-dimethyl-2-phenyl-4-pyrimidinyl)-N,N-dipropyl-1H-indole-2-carboxamide] | 6.9 |
| CCc1c(C)nc(-c2ccccc2)nc1NCC(=O)N(C)c1ccc(Cl)cc1 [Example 84, N-(4-chlorophenyl)-2-(5-ethyl-6-methyl-2-phenyl-4-pyrimidinylamino)-N-methylacetamide] | 2.04 |
| CCCN(CCC)C(=O)CNc1nc(-c2ccccc2)nc(-c2ccccc2)c1C [Example 97] | 2.27 |
| CCCN(CCC)C(=O)CNc1nc(-c2ccc(F)cc2)nc2c1CCCC2 [Example 103] | 2.9 |
| CCCN(CCC)C(=O)CN(C)c1nc(-c2ccccc2)nc2c1CCCC2 [Example 110] | 1.99 |
| CN(CC(=O)N(C)c1ccc(Cl)cc1)c1nc(-c2ccccc2)nc2c1CCCC2 [Example 111] | 2.05 |
| CCCN(CCC)C(=O)C(CO)Nc1nc(-c2ccccc2)nc2c1CCCC2 (stereo not drawn) [Example 118, 3-hydroxy-2-(5,6,7,8-tetrahydro-2-phenyl-4-quinazolinylamino)-N,N-dipropylpropanamide] | 1.07 |
| CCCN(CCC)C(=O)C1CCCN1c1nc(-c2ccccc2)nc2c1CCCC2 (stereo not drawn) [Example 119, 1-(5,6,7,8-Tetrahydro-2-phenyl-4-quinazolinyl)-N,N-dipropyl-2-pyrrolidinecarboxamide] | 1.45 |
| CN(C(=O)C1CCCN1c1nc(-c2ccccc2)nc2c1CCCC2)c1ccc(Cl)cc1 (stereo not drawn) [Example 120, N-(4-Chlorophenyl)-1-(5,6,7,8-tetrahydro-2-phenyl-4-quinazolinyl)-N-methyl-2-pyrrolidinecarboxamide 1/4 hydrate] | 1.63 |
| CN(C(=O)CNc1nc(-c2ccccc2)ncc1N)c1ccccc1 [Example 124, 2-(5-amino-2-phenyl-4-pyrimidinylamino)-N-methyl-N-phenylacetamide] | 5.35 |

| Structure (SMILES) | IC50 [nM] |
| --- | --- |
| CCCCN(CCCC)C(=O)COc1nc(-c2ccc(F)cc2)nc2c1CCCC2 [Example 134] | 3.07 |
| CCCN(CCC)C(=O)COc1nc(-c2ccc(F)cc2)nc(C)c1C [Example 138] | 0.53 |
| CCCN(CCC)C(=O)COc1nc(-c2ccc([N+](=O)[O-])cc2)nc(C)c1C [Example 142] | 0.08 |
| Cc1nc(-c2ccccc2)nc(OCC(=O)N(C)c2ccccc2)c1C [Example 143] | 1.4 |
| Cc1nc(-c2cccc(Cl)c2)nc(OCC(=O)N(C)c2ccccc2)c1C [Example 145] | 1.6 |
| CCN(C(=O)COc1nc(-c2ccccc2)nc(C)c1C)c1ccccc1 [Example 151] | 0.58 |
| CCN(C(=O)COc1nc(-c2ccc(C(F)(F)F)cc2)nc(C)c1C)c1ccccc1 [Example 155] | 0.76 |
| CCc1c(C)nc(-c2ccccc2)nc1OCC(=O)N(C)c1ccc(Cl)cc1 [Example 156] | 4.96 |
| CN(C(=O)COc1nc(-c2ccc(Cl)cc2)nc2c1CCCC2)c1ccc(Cl)cc1 [Example 163] | 2.64 |
| CCN(C(=O)COc1nc(-c2ccc([N+](=O)[O-])cc2)nc(C)c1C)c1ccccc1 [Example 164, N-ethyl-2-[5,6-dimethyl-2-(4-nitrophenyl)-4-pyrimidinyloxy]-N-phenylacetamide] | 0.29 |
| CCCN(CCC)C(=O)COc1cc(C)nc(-c2ccccc2)n1 [Example 166, 2-(6-methyl-2-phenyl-4-pyrimidinyloxy)-N,N-dipropylacetamide] | 5.4 |
| CCCN(CCC)C(=O)COc1nc(-c2ccccc2)nc(C)c1Br [Example 168, 2-(5-bromo-6-methyl-2-phenyl-4-pyrimidinyloxy)-N,N-dipropylacetamide] | 0.99 |
| CCN(CC)C(=O)COc1nc(-c2ccccc2)nc2c1CCCC2 [Example 179] | 4.3 |
| CN(C(=O)COc1nc(-c2ccccc2)nc2c1CCCC2)c1ccccc1 [Example 180] | 1.65 |
| CCCN(C(=O)COc1nc(-c2ccccc2)nc2c1CCCC2)c1ccccc1 [Example 182] | 4.57 |
| CN(C(=O)COc1nc(-c2ccccc2)nc2c1CCCC2)c1ccc(F)cc1 [Example 184] | 0.82 |
| CN(Cc1ccccc1)C(=O)COc1nc(-c2ccccc2)nc2c1CCCC2 [Example 188] | 5.24 |
| Cc1nc(-c2ccccc2)nc(OCC(=O)N(CC2CC2)c2ccccc2)c1C [Example 190, N-cyclopropylmethyl-2-(5,6-dimethyl-2-phenyl-4-pyrimidinyloxy)-N-phenylacetamide] | 4 |

Continued by falling IC50, values first:

| IC50 [nM] | Structure (SMILES) |
| --- | --- |
| 9.71 | CN(C(=O)COc1nc(-c2ccccc2)nc2c1CCCC2)c1cccc(Cl)c1 [Example 187] |
| 8.75 | O=C(COc1nc(-c2ccccc2)nc2c1CCCC2)Nc1ccc(F)cc1 [Example 183] |
| 4.35 | CCCN(CCC)C(=O)CNc1nc(-c2ccccc2)ncc1CO [Example 127, 2-(5-hydroxymethyl-2-phenyl-4-pyrimidinylamino)-N,N-dipropylacetamide] |
| 4.3 | CCCN(CCC)C(=O)COc1cc(C(F)(F)F)nc(-c2ccccc2)n1 [Example 160] |
| 4.24 | CCCCN(CCCC)C(=O)CNc1nc(-c2ccc(F)cc2)nc2c1CCCC2 [Example 106] |
| 4.23 | CCCCN(CCCC)C(=O)CNc1nc(-c2ccc(Cl)cc2)nc2c1CCCC2 [Example 107] |
| 4.18 | CCCCN(CCCC)C(=O)CNc1nc(-c2ccccc2)nc2c1CCCC2 [Example 105] |
| 4.07 | CCCN(CCC)C(=O)COc1cc(-c2ccccc2)nc(-c2ccccc2)n1 [Example 158] |
| 3.44 | CCCN(CCC)C(=O)CNc1nc(-c2ccc(Cl)cc2)nc2c1CCCC2 [Example 104] |
| 3.31 | CCCN(CCC)C(=O)CNc1nc(-c2ccccc2)nc2c1CCCC2 [Example 102, 2-(5,6,7,8-tetrahydro-2-phenyl-4-quinazolinylamino)-N,N-dipropylacetamide] |
| 3.17 | CCCCN(CCCC)C(=O)COc1nc(-c2ccc(Cl)cc2)nc2c1CCCC2 [Example 135] |
| 2.2 | CCCCN(CCCC)C(=O)COc1nc(-c2ccccc2)nc2c1CCCC2 [Example 133] |
| 2.09 | CN(C(=O)CNc1nc(-c2ccc(Cl)cc2)nc2c1CCCC2)c1ccc(Cl)cc1 [Example 109] |
| 2 | CCCN(CCC)C(=O)COc1nc(-c2ccccc2)nc(-c2ccccc2)c1C [Example 159] |
| 1.9 | CCN(CC)C(=O)COc1nc(-c2ccccc2)nc(C)c1C [Example 175] |
| 1.61 | CN(C(=O)COc1nc(-c2ccc(Cl)cc2)nc2c1CCCC2)c1ccccc1 [Example 181] |
| 1.31 | CCCN(CCC)C(=O)COc1nc(-c2cccc(Cl)c2)nc2c1CCCC2 [Example 130] |

| IC50 [nM] | Structure (SMILES) |
| --- | --- |
| 1.21 | CN(C(=O)CNc1nc(-c2ccccc2)nc2c1CCCC2)c1ccc(Cl)cc1 [Example 108] |
| 1.19 | CN(C(=O)COc1nc(-c2ccccc2)nc2c1CCCC2)c1ccc(Cl)cc1 [Example 162] |
| 1.15 | CCCN(CCC)C(=O)C(C)Oc1nc(-c2ccccc2)nc2c1CCCC2 (stereo not drawn) [Example 169, 2-(5,6,7,8-tetrahydro-2-phenyl-4-quinazolinyloxy)-N,N-dipropylpropanamide] |
| 1.14 | Cc1nc(-c2ccccc2)nc(OCC(=O)N(C)c2ccc(Cl)cc2)c1C [Example 149] |
| 1.12 | CCCN(CCC)C(=O)CN(C)c1nc(-c2ccccc2)nc(C)c1C [Example 70, 2-[methyl-(5,6-dimethyl-2-phenyl-4-pyrimidinyl)amino]-N,N-dipropylacetamide] |
| 1.05 | CCCN(CCC)C(=O)COc1nc(-c2ccccc2)nc2c1CCCC2 [Example 161] |
| 0.99 | Cc1nc(-c2ccccc2)nc(OCC(=O)N2CC(C)CC(C)C2)c1C (stereo not drawn) [Example 170, 3,5-dimethyl-1-(5,6-dimethyl-2-phenyl-4-pyrimidinyloxy)acetylpiperidine] |
| 0.93 | CCCN(CCC)C(=O)COc1nc(-c2ccc(Cl)cc2)nc(C)c1C [Example 137] |
| 0.89 | CCCN(CCC)C(=O)COc1nc(-c2ccc(Cl)cc2)nc2c1CCCC2 [Example 131] |
| 0.79 | CCCN(CCC)C(=O)COc1nc(-c2ccc(F)cc2)nc2c1CCCC2 [Example 128, 2-[2-(4-fluorophenyl)-5,6,7,8-tetrahydro-4-quinazolinyloxy]-N,N-dipropylacetamide] |
| 0.79 | CCCN(CCC)C(=O)COc1nc(-c2ccccc2)nc(C)c1Cl [Example 167, 2-(5-chloro-6-methyl-2-phenyl-4-pyrimidinyloxy)-N,N-dipropylacetamide] |
| 0.52 | Cc1nc(-c2ccc(C(F)(F)F)cc2)nc(OCC(=O)N(C)c2ccccc2)c1C [Example 147] |
| 0.28 | COc1ccc(-c2nc(C)c(C)c(NCC(=O)N(C)c3ccccc3)n2)cc1 [Example 26] |
| 0.23 | CCN(C(=O)CNc1nc(-c2ccc(C(F)(F)F)cc2)nc(C)c1C)c1ccccc1 [Example 49] |
| 0.18 | CCCN(CCC)C(=O)CNc1nc(-c2ccccc2)nc(CC)c1C [Example 85, 2-(6-ethyl-5-methyl-2-phenyl-4-pyrimidinylamino)-N,N-dipropylacetamide] |
| 0.11 | CCCN(CCC)C(=O)COc1nc(-c2ccc(C(F)(F)F)cc2)nc(C)c1C [Example 141] |
